Two molecules from patent US20040242547A1, “Arylazo-substituted imidazole for the treatment of stress urinary incontinence” (priority 2001, published 2004) can be followed below.

The test system of experiment [1] is human mesenteric arteries. In words: Agonist potency on human mesenteric artery sections (isometric tension, organ bath). It counts as cell-based. To be noted: for EC50 / mean maximum contraction: human mesenteric arteries; for EC50: endothelium removed, cocaine 10 μM, corticosterone 10 μM, propanolol 1 μM present, read-out: pEC50 (increase in developed tension) (converted); for mean maximum contraction: for the imidazole the maximum occurred at 20 micromolar. The procedure: (§1) Determinations were made of agonist potency on human LUT and blood vessel smooth muscle. Tissue sources: human lower urinary tract smooth muscle strips (prostatic/urethral) were obtained from patients undergoing transurethral resection of the prostate procedure for benign prostatic hyperplasia. Human mesenteric arteries (500-750 μm internal diameter) were obtained from patients undergoing bowel resection for carcinoma. Tissues were preserved in Krebs-bicarbonate solution at 4° C. from the time of surgery until used in functional experiments within 24 hours. Sections of mesenteric artery (5 mm in length) were set up between stainless steel stirrups after removal of the endothelium by gentle rubbing. Strips of prostatic/urethral smooth muscle (3×10 mm) and the mesenteric arteries were set up under 1 g resting tension in Krebs solution of composition (mM): NaCl 118.4; KCl 4.7; CaCl2 1.9; NaHCO3 25.0; MgSO4 1.2; KH2PO4 1.2; glucose 11.7, gassed with 5% CO2 in O2 and maintained at 37° C. The tension developed by all tissues was measured by means of isometric force transducers (Lectromed UFI 57G sensitivity) and recorded to computer via a Cambridge Electronic Design 1401 analogue to digital converter, using CHART software. Tissues were equilibrated for 60 minutes with several changes of bathing medium prior to starting drug administrations. All experiments were performed in the presence of cocaine (10 μM) and corticosterone (10 μM), to prevent neuronal and extraneuronal uptake of drugs, and propanolol (1 μM), to block B adrenoreceptors. Cumulative concentration-response curves were obtained to 2-[(5-chloro-2-methoxyphenyl)azo]-1H-imidazole, and to noradrenaline for comparison. For the mesenteric artery preparations following the recording of the final drug response to 2-[(5-chloro-2-methoxyphenyl)azo]-1H-imidazole, a supramaximal concentration of noradrenaline was added as a further test for partial agonism. Increases in developed tension to agonist were plotted and individual EC50 values were determined. From these, pEC50 (negative log of the EC50) values were determined for each experiment and where appropriate mean values of these with standard error of the means calculated.

In experiment [2] the test system is human lower urinary tract smooth muscle strips (prostatic/urethral). In words: Agonist potency on human lower urinary tract smooth muscle strips (isometric tension, organ bath). It counts as cell-based. Conditions: for EC50 / Emax: human LUT strips; for EC50: cocaine 10 μM, corticosterone 10 μM, propanolol 1 μM present, read-out: pEC50 (increase in developed tension) (converted); for Emax: relative to 100 mM potassium chloride, read-out: maximum response equivalent to % of the response to 100 mM potassium chloride. The procedure:
as §1, with “For the mesenteric artery preparations following the recording of the final drug response to 2-[(5-chloro-2-methoxyphenyl)azo]-1H-imidazole, a supramaximal concentration of noradrenaline was added as a further test for partial agonism.” left out

With `COc1ccc(Cl)cc1N=Nc1ncc[nH]1` [2-[(5-chloro-2-methoxyphenyl)azo]-1H-imidazole], the “agonist character compared with noradrenaline” value in experiment [1] (human blood vessels (mesenteric arteries)) is recorded as “partial agonist”. In experiment [1], the EC50 was 5010 nM and the mean maximum contraction amounted to 1.1 ± 0.7 g. In experiment [2], the EC50 is 2000 nM and the Emax was found to be 62.5%. Also, in experiment [2] (human LUT tissue), the “agonist character compared with noradrenaline” value is recorded as “full agonist”.

Regarding `NC[C@H](O)c1ccc(O)c(O)c1` [Noradrenaline, noradrenaline, reference compound], in experiment [1], the EC50 was 661 nM and the mean maximum contraction stood at 4.22 ± 2.21 g. The “mean further increase in tension” value in experiment [1] (noradrenaline 160-210 μM added after the highest concentration of 2-[(5-chloro-2-methoxyphenyl)azo]-1H-imidazole, n=3) came out at 2.7 ± 0.9 g. Also, in experiment [2], the EC50 is 3980 nM and the Emax was found to be 63.7 ± 4.8%.
